Consider 35 compounds from patent US20050215614A1, “Substituted indoles and their use as hcv inhibitors” (Rigel Pharmaceuticals, Inc., priority 2003, published 2005).

The assay has as its system HCV replicon. Description: HCV Replicon Assay (luciferase, 5-2 Luc replicon cells). It is filed as cell-based. The conditions noted are these: 5-2 Luc replicon cells (Huh7), 24-48 hours with compound, luciferase counts. As for the experimental part: Actively dividing 5-2 Luc replicon cells were seeded at the density of 5000-7500 cells/well in the volume of 90 μl/well into 96 well plate(s). The cells were then incubated at 37° C. and 5% CO2 for 24 hours. The 5-2 cells are replicon cells licensed from Ralf Bartenschlager (Germany) and have a self-replicating RNA molecule in the Huh7 cell; the RNA contains HCV non-structural proteins that make the self-replication possible.
Various concentrations of compounds (in the volume of 10 μl) were added into each well 24 hours after seeding the cells. The cells were incubated for another 24-48 hours before luciferase assay.
After incubating the 5-2 Luc replicon cells with the compounds for 24-48 hours, media were aspirated from each well and Bright-Glo (Promega) luciferase assay reagents were added to each well according to the manufacturer′s manual. Briefly, the Bright-Glo reagent was diluted with equal volume of PBS and an aliquote (100 μl) was added to each well. After incubating the plate at room temperature for 5 minutes, luciferase counts were taken using a luminometer.
A general note: Replicon systems follow genome replication, usually without infectious particles.

Consider `COc1cccc(OC)c1C(=O)n1c(C)cc2cc(NC(=O)c3cccnc3)ccc21` [Compound 16b-5, 1-(2′,6′-Dimethoxybenzoyl)-5-(3-pyridylcarbonyl)amino-2-methylindole], for which the “Activity (concentration of inhibitory activity)” value is recorded as “a (“a” indicates inhibitory activity at a concentration of less than 10 micromolar)”.

In the case of `Cc1cc2cc(NC(=O)C3CCNCC3)ccc2n1C(=O)c1c(F)cccc1Cl` [Compound 273], the “Activity (concentration of inhibitory activity)” value was “b (“b” indicates activity is at a concentration greater than 10 micromolar)”. For `CCCCC(=O)Nc1ccc2c(c1)c(C)cn2C(=O)c1c(Cl)cccc1Cl` [Compound 9e, 5-(n-Butanecarbonyl)amino-1-(2′,6′-dichlorobenzoyl)-3-methylindole], the “Activity (concentration of inhibitory activity)” value is on record as “a (“a” indicates inhibitory activity at a concentration of less than 10 micromolar)”. On to `O=C(Nc1ccc2c(ccn2C(=O)c2c(Cl)cccc2Cl)c1)C(Cl)Cl` [Compound 248], for which the “Activity (concentration of inhibitory activity)” value is listed as “b (“b” indicates activity is at a concentration greater than 10 micromolar)”. As for `COc1cccc(OC)c1C(=O)n1c(C)cc2cc(NC(=O)C3CCC(=O)C3)ccc21` (centres unmarked) [Compound 16b-6, 1-(2′,6′-Dimethoxybenzoyl)-5-(3-oxo-1-cyclopentanecarbonyl)amino-2-methylindole], the entry is “a (“a” indicates inhibitory activity at a concentration of less than 10 micromolar)”; as for `C/C=C/C(=O)C(=O)Nc1ccc2c(c1)c(C)cn2C(=O)c1c(Cl)cccc1Cl` [Compound 9f, 5-(trans-Crotonylcarbonyl)amino-1-(2′,6′-dichlorobenzoyl)-3-methylindole], “a (“a” indicates inhibitory activity at a concentration of less than 10 micromolar)”. For `C/C=C/C(=O)Nc1ccc2c(c1)cc(C)n2C(=O)c1c(Cl)cccc1Cl` [Compound 16a-8, 5-(trans-Crotonyl)amino-1-(2′,6′-dichlorobenzoyl)-2-methylindole] the value was “a (“a” indicates inhibitory activity at a concentration of less than 10 micromolar)”; for `Cc1cn(C(=O)c2c(Cl)cccc2Cl)c2ccc(NC(=O)C3CCCCC3)cc12` [Compound 236], “b (“b” indicates activity is at a concentration greater than 10 micromolar)”; for `Cc1cc2cc(NC(=O)CBr)ccc2n1C(=O)c1c(Cl)cccc1Cl` [Compound 263], “b (“b” indicates activity is at a concentration greater than 10 micromolar)”.

Consider `Cc1cc2cc(NC(=O)C3CCCCC3)ccc2n1C(=O)c1c(F)cccc1C(F)(F)F` [Compound 16c-2, 5-Cyclohexanecarbonylamino-1-(2′-fluoro-6′-trifluoromethylbenzoyl)-2-methylindole], for which the “Activity (concentration of inhibitory activity)” value is given as “a (“a” indicates inhibitory activity at a concentration of less than 10 micromolar)”. For `Cc1ccsc1C(=O)Nc1ccc2c(c1)cc(C)n2C(=O)c1c(Cl)cccc1Cl` [Compound 16a-11, 1-(2′,6′-Dichlorobenzoyl)-5-(3-methyl-2-thiophenylcarbonyl)amino-2-methylindole] the value was “a (“a” indicates inhibitory activity at a concentration of less than 10 micromolar)”; for `Cc1cc2cc(NC(=O)C3CCC(=O)C3)ccc2n1C(=O)c1c(F)cccc1Cl` (centres unmarked) [Compound 16e-5, 1-(2′-Chloro-6′-fluorobenzoyl)-5-(3-oxo-1-cyclopentanecarbonyl)amino-2-methylindole], “a (“a” indicates inhibitory activity at a concentration of less than 10 micromolar)”. As to `O=C(Nc1ccc2c(ccn2C(=O)c2c(Cl)cccc2Cl)c1)C1CCCCC1` [Compound 252], the “Activity (concentration of inhibitory activity)” value was “b (“b” indicates activity is at a concentration greater than 10 micromolar)”. As for `CC(C)(C)c1cc2cc(NC(=O)Cc3ccc(F)cc3)ccc2[nH]1` [Compound 220], the entry is “b (“b” indicates activity is at a concentration greater than 10 micromolar)”; as for `Cc1cc2cc(NC(=O)Cc3cccnc3)ccc2n1C(=O)c1c(Cl)cccc1Cl` [Compound 16a-13, 1-(2′,6′-Dichlorobenzoyl)-5-(3-pyridyl-2-acetamido)-2-methylindole], “a (“a” indicates inhibitory activity at a concentration of less than 10 micromolar)”; as for `O=C(Nc1ccc2c(ccn2C(=O)c2c(Cl)cccc2Cl)c1)C1CCCC1` [Compound 247], “b (“b” indicates activity is at a concentration greater than 10 micromolar)”.

Consider `Cc1cccc(C)c1C(=O)n1c(C)cc2cc(NC(=O)[C@H]3CCCN3)ccc21` [Compound 270], for which the “Activity (concentration of inhibitory activity)” value is on record as “b (“b” indicates activity is at a concentration greater than 10 micromolar)”. As for `COc1cccc(OC)c1C(=O)n1c(C)cc2cc(NC(=O)C3CCCCC3)ccc21` [Compound 16b-2, 5-Cyclohexanecarbonylamino-1 (2′,6′-dimethoxybenzoyl)-2-methylindole], the entry is “a (“a” indicates inhibitory activity at a concentration of less than 10 micromolar)”; as for `Cc1cc2cc(NC(=O)C3CCCNC3)ccc2n1C(=O)c1c(F)cccc1Cl` (centres unmarked) [Compound 272], “b (“b” indicates activity is at a concentration greater than 10 micromolar)”. In the case of `COc1cccc(OC)c1C(=O)n1c(C)cc2cc(NC(=O)C3CCC3)ccc21` [Compound 16b-3, 5-Cyclobutanecarbonylamino-1-(2′,6′-dimethoxybenzoyl)-2-methylindole], the “Activity (concentration of inhibitory activity)” value is “a (“a” indicates inhibitory activity at a concentration of less than 10 micromolar)”. For `Cc1cn(C(=O)c2c(Cl)cccc2Cl)c2ccc(NC(=O)c3c(F)cccc3F)cc12` [Compound 235] the value was “b (“b” indicates activity is at a concentration greater than 10 micromolar)”. As for `O=C(Nc1ccc2c(ccn2C(=O)c2c(Cl)cccc2Cl)c1)C1CC1` [Compound 254], the entry is “b (“b” indicates activity is at a concentration greater than 10 micromolar)”; as for `CCC(C)(C)c1cc2cc(NC(=O)c3cccc(C(F)(F)F)c3)ccc2[nH]1` [Compound 286], “a (“a” indicates inhibitory activity at a concentration of less than 10 micromolar)”; as for `Cc1ccccc1C(=O)n1c(C)cc2cc(NC(=O)C3CCCC3)ccc21` [Compound 277], “b (“b” indicates activity is at a concentration greater than 10 micromolar)”. For `COc1cscc1C(=O)Nc1ccc2c(c1)cc(C)n2C(=O)c1c(Cl)cccc1Cl` [Compound 16a-12, 1-(2′,6′-Dichlorobenzoyl)-5-(4-methoxy-3-thiophenylcarbonyl)amino-2-methylindole], the “Activity (concentration of inhibitory activity)” value is on record as “a (“a” indicates inhibitory activity at a concentration of less than 10 micromolar)”.

For the compound `CC(C)(C)c1cc2cc(NC(=O)c3cc(Cl)nc(Cl)c3)ccc2[nH]1` [Compound 279], the “Activity (concentration of inhibitory activity)” value was “a (“a” indicates inhibitory activity at a concentration of less than 10 micromolar)”. For `COc1cscc1C(=O)Nc1ccc2[nH]c(C(C)(C)C)cc2c1` [Compound 223] the value was “a (“a” indicates inhibitory activity at a concentration of less than 10 micromolar)”; for `Cc1cc2cc(NC(=O)C3CCCC3)ccc2n1C(=O)c1ccccc1Cl` [Compound 18, 1-(2′-Chlorobenzoyl)-5-cyclopentanecarbonylamino-2-methylindole], “b (“b” indicates activity is at a concentration greater than 10 micromolar)”.

`Cc1ccsc1C(=O)Nc1ccc2[nH]c(C(C)(C)C)cc2c1` [Compound 5g, 2-t-Butyl-5-(3-methylthiophene-2-carbonyl)aminoindole]: the “Activity (concentration of inhibitory activity)” value is “a (“a” indicates inhibitory activity at a concentration of less than 10 micromolar)”. Consider `CC(C)(C)c1cc2cc(NC(=O)C3(c4ccc(Cl)cc4)CCCC3)ccc2[nH]1` [Compound 5d, 2-t-Butyl-5-(1-(4chlorophenyl)-1-cyclopentanecarbonyl)aminoindole], for which the “Activity (concentration of inhibitory activity)” value is “b (“b” indicates activity is at a concentration greater than 10 micromolar)”. As for `CCC(C)(C)c1cc2cc(NC(=O)c3cccs3)ccc2[nH]1` [Compound 288], the entry is “b (“b” indicates activity is at a concentration greater than 10 micromolar)”; as for `Cc1cc2cc(NC(=O)C3CCC3)ccc2n1C(=O)c1c(Cl)cccc1Cl` [Compound 16a-3, 5-Cyclobutanecarbonylamino-1-(2′,6′-dichlorobenzoyl)-2-methylindole], “a (“a” indicates inhibitory activity at a concentration of less than 10 micromolar)”. For `COc1ccccc1C(=O)n1c(C)cc2cc(NC(=O)C3CCCC3)ccc21` [Compound 19, 1-(o-Anisoyl)-5-cyclopentanecarbonylamino-2-methylindole] the value was “a (“a” indicates inhibitory activity at a concentration of less than 10 micromolar)”.

Regarding `Cc1c(C)n(C(=O)c2c(Cl)cccc2Cl)c2ccc(NC(=O)/C=C/c3ccccc3)cc12` [Compound 238], the “Activity (concentration of inhibitory activity)” value is listed as “b (“b” indicates activity is at a concentration greater than 10 micromolar)”. On to `CC(C)(C)c1cc2cc(NC(=O)CC(c3ccccc3)c3ccccc3)ccc2[nH]1` [Compound 219], for which the “Activity (concentration of inhibitory activity)” value is recorded as “b (“b” indicates activity is at a concentration greater than 10 micromolar)”.
